In article PMC11125197, “Evaluation of Drug Blood-Brain-Barrier Permeability Using a Microfluidic Chip” (Pharmaceutics, 2024):

Assays:
[1] = system: human BBB-on-a-chip (hBMEC, HBVP, NHA); test: in vitro
Experimental: (§1) The design and construction of the BBB-on-a-chip were as reported previously. The chip (Emulate, #OCK-12) was composed of two parallel microchannels (top; 1 × 1 mm, bottom; 1 × 0.2 mm) separated by a porous polydimethysiloxane (PDMS) membrane (diameter, 7 μm; spacing, 40 μm; thickness, 50 μm, resulting in 2% porosity over a surface area of 0.171 cm^2 separating the two channels). The membrane was activated according to the manufacturer’s instructions and coated with the mixture of laminin (1 mg/mL), collagen IV (1 mg/mL), and fibronectin (1 mg/mL) in DPBS (Figure 1). Coated chips were incubated at 4 °C overnight, then at 37 °C for 1 h before seeding the cells. hBMEC cells (9 × 10^5 cells/mL) were 20 µL seeded into the bottom channel of the chip. The chip was immediately inverted and incubated at 37 °C for 4 h. After 4 h, hBMECs were prepared as previously described and re-injected into the bottom channel to mimic the vascular structure, as shown in right panel of Figure 2A.
(§2) Ten drugs (Table 1) were selected for BBB permeability analysis (CAF, CBZ, DES, LPM, CET, VIN, LP, NZD, DPZ, and SIM). […] We performed transport experiments for the basolateral-to-apical side and the apical-to-basolateral side.
(§3) Fifteen microliters of blood-and-brain medium was mixed with 135 μL internal standard (IS) solution (5 ng/mL disopyramide in acetonitrile). The mixture was vortexed briefly and centrifuged at 15,000 rpm for 5 min at 4 °C. […] Mobile phase A was 0.1% formic acid in water and mobile phase B was 0.1% formic acid in acetonitrile. Chromatographic separation was performed on a Luna C18 column (100 × 2 mm (i.d.) 3 μm, Phenomenex) with a Security Guard C18 guard column (4 mm × 20 mm (i.d.), Phenomenex) by gradient elution at a flow rate of 0.3 mL/min (Table 2). The mass spectrometer was operated in positive ion mode for all compounds, and the carryover was checked by the injection of a blank in between samples.
(§4) (1) Ctn,channel=Atn−1, channel+C(tn−tn−1),channel·tn−tn−1·channel flow rate/tn·channel flow rate, where Achannel is the drug amount of the channel; tn is time point; C(tn−tn−1),channel is the concentration of drug pooled from tn to tn−1; channel flow rate, fluid flow rate in channel;
(§5) (2) Cchannel=Css, channel · t/CT50, channel+t, where CT50, channel is the time at a half steady state concentration of channel; t, time.
(§6) Kp , the partition coefficient, in the BBB-on-a-chip was calculated by dividing the calculated Css, brain by the Css, blood value of the drug passing through the bottom channel, as shown in Equation (3). (3) Kp=Css, brain/Css, blood
(§7) J represents the rate at which the amount of compound moves from the bottom channel to the top channel, which was calculated by determining the slope of the time-versus-amount curve at 0 h to the point at which a steady state (90% of Tss ) was reached. Papp can be calculated by dividing J by the surface area of the membrane (SA) separating the two channels and the initial concentration in the bottom channel. (4) Papp=J/MW/SA·C0,blood ,J=dAbrain/dt, where MW is molecular weight of each drug.

in vitro = settings: human
Experimental: as §1, §2, §3, §4, §5, §6, §7

[2] = system: human BBB-on-a-chip (hBMEC, HBVP, NHA); test: BBB-on-a-chip permeability, basolateral to apical (brain to blood channel), LC-MS/MS; type: in vitro ADME; settings: 1 μM in top channel
Excerpt: Css, channel , the concentration in the channel at the steady state, was estimated using a simple Emax model Equation (2) with time (h) on the x-axis and concentration (ng/mL) on the y-axis.

[3] = 1 μM dosed, simple Emax model fit
[4] = 1 μM dosed, simple Emax model fit, sampling 1, 4, 9, 24 h
[5] = time to reach predicted 90% Css

Row | SMILES | Cplateau,brain (concentration at plateau time of brain channel) ([1]; human) | Css,blood (steady state concentration of blood channel) ([1]; human) | Css,brain (steady state concentration of brain channel) ([1]; human) | Kp (in vitro) | CT50,brain (time at half steady state concentration of brain channel) [1, 3] | CT50,blood (time at half steady state concentration of blood channel) [1, 4] | tplateau,brain (plateau time for brain channel) [1, 5] | Papp at 24 h, 1 μM (in vitro) | also measured
1 | Cn1c(=O)c2c(ncn2C)n(C)c1=O [Caffeine, caffeine] | 44.8098 ng/mL | 114.47 ng/mL | 49.79 ng/mL | 0.435 |  |  |  |  | Plateau reached in brain channel during the observed time [1]: reached plateau; CT50,blood (time at half steady state concentration of blood channel) ([1]; human): 2.91 h; CT50,brain (time at half steady state concentration of brain channel) ([1]; human): 2.39 h; tplateau,brain (plateau time for brain channel) ([1]; human): 21.52 h; Papp (in vitro): 30 ×10⁻⁶ cm/s
2 | NC(=O)N1c2ccccc2C=Cc2ccccc21 [Carbamazepine, carbamazepine] | 28.6749 ng/mL | 112.88 ng/mL | 31.86 ng/mL |  | 3.27 h | 1.98 h | 29.41 h | 15.8 ×10⁻⁶ cm/s | BBB permeability in words (apical to basolateral) ([1]; BBB-on-a-chip, 1 μM): high permeabilities; Kp at 1 μM (in vitro): 0.282
3 | CNCCCN1c2ccccc2CCc2ccccc21 [Desipramine, desipramine] |  |  |  |  | 34.47 h | 57.44 h | 310.22 h | 32.5 ×10⁻⁶ cm/s | Css,blood (steady state concentration of blood channel) [1, 3]: 234.83 ng/mL; Css,brain (steady state concentration of brain channel) [1, 3]: 73.93 ng/mL; Cplateau,brain (concentration at plateau time of brain channel) ([1]; predicted 90% Css): 66.5383 ng/mL
4 | Nc1nc(OC(c2ccc(-c3cccc(F)c3)cc2)C(F)(F)F)cc(-c2ccc(C[C@H](N)C(=O)O)cc2)n1 (some centres unmarked) [LP533401] |  |  |  |  | 0.16 h | 6.80 h | 1.42 h |  | BBB permeability in words (apical to basolateral) [1]: low permeability; Papp (apparent permeability) [1]: 2.1693 10^−6cm/s; Css,blood (steady state concentration of blood channel) [1, 3]: 573.66 ng/mL; Css,brain (steady state concentration of brain channel) [1, 3]: 9.77 ng/mL; Kp (Brain/Blood), partition coefficient ([1]; human): 0.0170; Plateau reached in brain channel during the observed time ([1]; observation up to 24 h): reached plateau; Cplateau,brain (concentration at plateau time of brain channel) ([1]; predicted 90% Css): 8.7886 ng/mL
5 | CN(C)C(=O)C(CCN1CCC(O)(c2ccc(Cl)cc2)CC1)(c1ccccc1)c1ccccc1 [Loperamide, loperamide] | 33.9736 ng/mL | 684.09 ng/mL | 37.75 ng/mL | 0.0552 | 20.04 h | 58.46 h |  |  | BBB permeability in words (basolateral to apical) [2]: high permeability; tplateau,brain (plateau time for brain channel) ([1]; human): 180.32 h; Papp (in vitro): 9.26 ×10⁻⁶ cm/s
6 | CCc1nn(CCCN2CCN(c3cccc(Cl)c3)CC2)c(=O)n1CCOc1ccccc1 [Nefazodone, nefazodone] | 13.8908 ng/mL | 161.89 ng/mL | 15.43 ng/mL |  | 37.79 h | 9.01 h | 340.10 h | 3.84 ×10⁻⁶ cm/s | Kp at 1 μM (in vitro): 0.0953
7 | CC[C@]1(O)C[C@H]2CN(CCc3c([nH]c4ccccc34)[C@@](C(=O)OC)(c3cc4c(cc3OC)N(C=O)[C@H]3[C@@](O)(C(=O)OC)[C@H](OC(C)=O)[C@]5(CC)C=CCN6CC[C@]43[C@@H]65)C2)C1 [Vincristine, vincristine] |  | 626.20 ng/mL |  | 0.0821 |  | 2.99 h |  |  | Plateau reached in brain channel during the observed time ([1]; observation up to 24 h): reached plateau
